{
  "source": "ChEMBL document CHEMBL1128816",
  "about": "“Synthesis and structure-activity relationships of new acetylcholinesterase inhibitors: Morpholinoalkylcarbamoyloxyeseroline derivatives” (Bioorg Med Chem Lett, 1995)",
  "molecular_target": "Acetylcholinesterase (Homo sapiens, UniProt P22303)",
  "sequence (P22303 whole entry)": "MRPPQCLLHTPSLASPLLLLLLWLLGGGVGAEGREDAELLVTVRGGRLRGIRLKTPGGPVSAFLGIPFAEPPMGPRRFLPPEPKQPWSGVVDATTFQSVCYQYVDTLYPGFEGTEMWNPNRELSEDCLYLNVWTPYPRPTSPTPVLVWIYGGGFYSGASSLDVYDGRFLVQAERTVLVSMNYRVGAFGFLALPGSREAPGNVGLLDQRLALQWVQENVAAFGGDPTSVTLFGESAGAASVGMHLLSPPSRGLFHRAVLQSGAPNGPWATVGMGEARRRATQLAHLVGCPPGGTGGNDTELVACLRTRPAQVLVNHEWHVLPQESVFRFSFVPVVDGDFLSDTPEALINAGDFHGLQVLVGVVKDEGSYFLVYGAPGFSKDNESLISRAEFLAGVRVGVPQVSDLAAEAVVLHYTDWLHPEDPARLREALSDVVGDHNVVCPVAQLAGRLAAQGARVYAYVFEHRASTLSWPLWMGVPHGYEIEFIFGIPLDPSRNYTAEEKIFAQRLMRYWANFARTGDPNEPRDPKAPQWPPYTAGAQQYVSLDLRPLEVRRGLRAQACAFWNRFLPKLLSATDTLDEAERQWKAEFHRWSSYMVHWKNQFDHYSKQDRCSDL",
  "assay": "Inhibition of Acetylcholinesterase (AChE) from human RBC",
  "data": [
    {"smiles": "CN1CC[C@@]2(C)c3cc(OC(=O)NCCCCN4CCOCC4)ccc3N(C)[C@@H]12", "values": [
      {"measurement": "IC50", "value": 21, "unit": "µM"}
    ]},
    {"smiles": "CN1CC[C@@]2(C)c3cc(OC(=O)NCCCCCCCCN4CCOCC4)ccc3N(C)[C@@H]12", "values": [
      {"measurement": "IC50", "value": 0.08, "unit": "µM"}
    ]}
  ]
}
